Assay results reported in ChEMBL document CHEMBL3091421, “Discovery of benzo[d]imidazo[5,1-b]thiazole as a new class of phosphodiesterase 10A inhibitors” (Bioorg Med Chem Lett, 2013).

Key:
Rattus norvegicus [1] = assay: Antipsychotic activity in Sprague-Dawley rat conditioned avoidance response model assessed as reduction in avoidance at 1 mg/kg, ip after 15 mins relative to vehicle-treated control; format: functional; parameters: scale not given: the % may be the effect or the level left; settings: route intraperitoneal
Mus musculus [2] = assay: Antipsychotic activity in ip dosed CD-1 mouse assessed as reduction in apomorphine-induced climbing behavior administered 15 mins prior to apomorphine-challenge measured immediately relative to vehicle-treated control; format: functional; settings: CD-1, ip
Rattus norvegicus [3] = assay: Antipsychotic activity in Sprague-Dawley rat psychosis model assessed as inhibition of MK-801-induced ataxia at 6 mg/kg, ip administered 5 mins prior to MK-801-challenge measured after 15 mins up to 1 hr relative to vehicle-treated control; format: functional; settings: route intraperitoneal
[4] = Half life in Sprague-Dawley rat at 10 mg/kg, po by LC-MS/MS analysis; format: ADME, organism-based; parameters: dose 10 mg/kg, route oral; settings: in vivo
[5] = Ratio of drug level in brain to plasma in Sprague-Dawley rat at 10 mg/kg, po after 30 mins; format: ADME, organism-based; parameters: dose 10 mg/kg, route oral; settings: brain and plasma, read-out: BPR
Rattus norvegicus [6] = assay: Antipsychotic activity in ip dosed Sprague-Dawley rat psychosis model assessed as inhibition of MK-801-induced ataxia administered 5 mins prior to MK-801-challenge measured after 15 mins up to 1 hr relative to vehicle-treated control; format: functional, organism-based
Homo sapiens [7] = species: Homo sapiens; assay: Selectivity ratio of IC50 for PDE3A (unknown origin) to IC50 for human recombinant PDE10A
Rattus norvegicus [8] = assay: Antipsychotic activity in Sprague-Dawley rat assessed as reduction in quipazine-induced head-twitches at 0.3 mg/kg, ip administered 15 mins prior to quipazine-challenge measured immediately relative to vehicle-treated control; format: functional; parameters: scale not given: the % may be the effect or the level left; settings: route intraperitoneal
Rattus norvegicus [9] = assay: Antipsychotic activity in Sprague-Dawley rat psychosis model assessed as inhibition of MK-801-induced stereotypy at 6 mg/kg, ip administered 5 mins prior to MK-801-challenge measured after 15 mins up to 1 hr relative to vehicle-treated control; format: functional; settings: route intraperitoneal
[10] = target: cGMP-dependent 3',5'-cyclic phosphodiesterase (Homo sapiens) (UniProt O00408); assay: Inhibition of PDE2A (unknown origin) using cAMP as substrate at 10 uM after 30 mins by HTRF method
Homo sapiens [11] = species: Homo sapiens; assay: Selectivity ratio of IC50 for PDE8A (unknown origin) to IC50 for human recombinant PDE10A
Rattus norvegicus [12] = assay: Antipsychotic activity in Sprague-Dawley rat psychosis model assessed as inhibition of MK-801-induced stereotypy at 3 mg/kg, ip administered 5 mins prior to MK-801-challenge measured after 15 mins up to 1 hr relative to vehicle-treated control; format: functional; settings: route intraperitoneal
Rattus norvegicus [13] = assay: Antipsychotic activity in Sprague-Dawley rat conditioned avoidance response model assessed as reduction in avoidance at 6 mg/kg, ip after 15 mins relative to vehicle-treated control; format: functional; parameters: scale not given: the % may be the effect or the level left; settings: route intraperitoneal
Rattus norvegicus [14] = assay: Antipsychotic activity in Sprague-Dawley rat psychosis model assessed as inhibition of MK-801-induced stereotypy at 10 mg/kg, ip administered 5 mins prior to MK-801-challenge measured after 15 mins up to 1 hr relative to vehicle-treated control; format: functional; settings: route intraperitoneal
Rattus norvegicus [15] = assay: Antipsychotic activity in Sprague-Dawley rat assessed as reduction in quipazine-induced head-twitches at 3 mg/kg, ip administered 15 mins prior to quipazine-challenge measured immediately relative to vehicle-treated control; format: functional; parameters: scale not given: the % may be the effect or the level left; settings: route intraperitoneal
Rattus norvegicus [16] = assay: Antipsychotic activity in Sprague-Dawley rat psychosis model assessed as inhibition of MK-801-induced stereotypy at 1 mg/kg, ip administered 5 mins prior to MK-801-challenge measured after 15 mins up to 1 hr relative to vehicle-treated control; format: functional; settings: route intraperitoneal
Rattus norvegicus [17] = assay: Antipsychotic activity in Sprague-Dawley rat psychosis model assessed as inhibition of MK-801-induced locomotion at 10 mg/kg, ip administered 5 mins prior to MK-801-challenge measured after 15 mins up to 1 hr relative to vehicle-treated control; format: functional; settings: route intraperitoneal
Homo sapiens [18] = species: Homo sapiens; assay: Selectivity ratio of IC50 for PDE5A (unknown origin) to IC50 for human recombinant PDE10A
Rattus norvegicus [19] = assay: Antipsychotic activity in Sprague-Dawley rat psychosis model assessed as inhibition of MK-801-induced ataxia at 10 mg/kg, ip administered 5 mins prior to MK-801-challenge measured after 15 mins up to 1 hr relative to vehicle-treated control; format: functional; settings: route intraperitoneal
Homo sapiens [20] = species: Homo sapiens; assay: Selectivity ratio of IC50 for PDE11A (unknown origin) to IC50 for human recombinant PDE10A
Rattus norvegicus [21] = assay: Antipsychotic activity in Sprague-Dawley rat psychosis model assessed as inhibition of MK-801-induced stereotypy at 0.3 mg/kg, ip administered 5 mins prior to MK-801-challenge measured after 15 mins up to 1 hr relative to vehicle-treated control; format: functional; settings: route intraperitoneal
[22] = target: cGMP-specific 3',5'-cyclic phosphodiesterase (Homo sapiens) (UniProt O76074); assay: Inhibition of PDE5A (unknown origin) using [3H]-cGMP as substrate at 10 uM after 30 mins by radiometric assay
Homo sapiens [23] = species: Homo sapiens; assay: Selectivity ratio of IC50 for PDE2A (unknown origin) to IC50 for human recombinant PDE10A
Mus musculus [24] = assay: Ratio of ED50 for antipsychotic activity in ip dosed CD-1 mouse assessed as reduction in apomorphine-induced sniffing behavior to ED50 for antipsychotic activity in ip dosed CD-1 mouse assessed as reduction in apomorphine-induced climbing behavior; format: functional
[25] = Drug uptake in Sprague-Dawley rat brain at 10 mg/kg, po after 30 mins; format: ADME, organism-based; parameters: dose 10 mg/kg, route oral; settings: read-out: Drug uptake
Rattus norvegicus [26] = assay: Antipsychotic activity in Sprague-Dawley rat conditioned avoidance response model assessed as reduction in avoidance at 3 mg/kg, ip after 15 mins relative to vehicle-treated control; format: functional; parameters: scale not given: the % may be the effect or the level left; settings: route intraperitoneal

Sequence of cGMP-dependent 3',5'-cyclic phosphodiesterase (Homo sapiens) (O00408 whole entry): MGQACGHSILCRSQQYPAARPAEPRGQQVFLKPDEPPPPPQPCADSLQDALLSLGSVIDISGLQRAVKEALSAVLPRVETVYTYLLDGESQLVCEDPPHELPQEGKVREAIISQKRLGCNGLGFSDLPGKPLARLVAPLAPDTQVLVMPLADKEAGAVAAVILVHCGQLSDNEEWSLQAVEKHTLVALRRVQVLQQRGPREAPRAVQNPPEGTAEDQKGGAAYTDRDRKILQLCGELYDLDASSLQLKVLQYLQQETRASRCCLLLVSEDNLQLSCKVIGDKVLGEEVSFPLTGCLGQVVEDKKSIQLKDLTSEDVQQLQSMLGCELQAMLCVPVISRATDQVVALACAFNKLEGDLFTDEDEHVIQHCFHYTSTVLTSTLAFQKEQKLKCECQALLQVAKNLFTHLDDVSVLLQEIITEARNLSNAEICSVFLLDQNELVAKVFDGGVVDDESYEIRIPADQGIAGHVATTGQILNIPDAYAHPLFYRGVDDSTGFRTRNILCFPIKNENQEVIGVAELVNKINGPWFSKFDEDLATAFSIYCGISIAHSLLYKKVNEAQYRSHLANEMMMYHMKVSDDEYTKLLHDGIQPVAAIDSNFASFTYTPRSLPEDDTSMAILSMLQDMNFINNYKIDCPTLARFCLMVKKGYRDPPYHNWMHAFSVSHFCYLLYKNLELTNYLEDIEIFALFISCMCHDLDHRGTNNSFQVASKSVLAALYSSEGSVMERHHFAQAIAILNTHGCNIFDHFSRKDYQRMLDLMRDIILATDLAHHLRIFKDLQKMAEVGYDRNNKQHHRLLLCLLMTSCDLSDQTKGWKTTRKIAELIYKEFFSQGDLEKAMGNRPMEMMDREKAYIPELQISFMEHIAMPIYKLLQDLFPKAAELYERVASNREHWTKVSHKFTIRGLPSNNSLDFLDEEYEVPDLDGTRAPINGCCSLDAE

Cc1nc(C2CCOCC2)n2c1sc1cc(OCc3ccc4ccccc4n3)ccc12
Activity (Rattus norvegicus [1]): 26% | ED50 (Mus musculus [2]): 2.68 mg/kg | inhibition in vivo at 6 mg/kg (Rattus norvegicus [3]): 46% | half-life [4]: 2.1 h | Kp at 0.5 h [5]: 1.82 | inhibition (Rattus norvegicus [6]): Dose-dependent effect | Ratio IC50 (Homo sapiens [7]): > 500 | Activity (Rattus norvegicus [8]): 25% | inhibition in vivo at 6 mg/kg (Rattus norvegicus [9]): 69% | inhibition [10]: 60.8% | Ratio IC50 (Homo sapiens [11]): > 500 | inhibition in vivo at 3 mg/kg (Rattus norvegicus [12]): 27% | Activity (Rattus norvegicus [13]): 94% | inhibition in vivo at 10 mg/kg (Rattus norvegicus [14]): 66% | Activity (Rattus norvegicus [15]): 67% | inhibition in vivo at 1 mg/kg (Rattus norvegicus [16]): 27% | inhibition in vivo at 10 mg/kg (Rattus norvegicus [17]): 83% | Ratio IC50 (Homo sapiens [18]): > 500 | inhibition in vivo at 10 mg/kg (Rattus norvegicus [19]): 82% | Ratio IC50 (Homo sapiens [20]): > 500 | inhibition in vivo at 0.3 mg/kg (Rattus norvegicus [21]): 58% | inhibition [22]: 45.5% | Ratio IC50 (Homo sapiens [23]): > 500 | Ratio ED50 (Mus musculus [24]): 6.08 | concentration at 0.5 h [25]: 672 ng/g | Activity (Rattus norvegicus [26]): 67%
